Tested on: 624824-186-R-J2-PDC multicell spheroids, viability
Test: Anticancer human tumor 624824-186-R-J2-PDC patient-derived colon adenocarcinoma cell line growth inhibition [PI3K]
Settings: for IC50: curve of first compound; for viability, T/C: stronger effect = lower value; active means viability on the fitted dose curve at most 10% of control; inactive means the rest
Method in brief: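 Three cell types, namely tumor cells, endothelial cells and mesenchymal stem cells, formed each spheroid. Combinations with four PI3K inhibitors were screened at clinically achievable concentrations decreasing by half-log, and spheroid viability was recorded.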

[1] = second compound 0.0316 µM, first compound 0.0316 µM
[2] = second compound 0.0316 µM, first compound 0.1 µM
[3] = second compound 0.0316 µM, first compound 0.316 µM
[4] = second compound 0.0316 µM, first compound 1 µM
[5] = second compound 0.1 µM, first compound 0.0316 µM
[6] = second compound 0.1 µM, first compound 0.1 µM
[7] = second compound 0.1 µM, first compound 0.316 µM
[8] = second compound 0.1 µM, first compound 1 µM
[9] = second compound 0.316 µM, first compound 0.0316 µM
[10] = second compound 0.316 µM, first compound 0.1 µM
[11] = second compound 0.316 µM, first compound 0.316 µM
[12] = second compound 0.316 µM, first compound 1 µM
[13] = second compound 1 µM, first compound 0.0316 µM
[14] = second compound 1 µM, first compound 0.1 µM
[15] = second compound 1 µM, first compound 0.316 µM
[16] = second compound 1 µM, first compound 1 µM
[17] = second compound 3.16 µM, first compound 0.0316 µM
[18] = second compound 3.16 µM, first compound 0.1 µM
[19] = second compound 3.16 µM, first compound 0.316 µM
[20] = second compound 3.16 µM, first compound 1 µM
[21] = second compound 10 µM, first compound 0.0316 µM
[22] = second compound 10 µM, first compound 0.1 µM
[23] = second compound 10 µM, first compound 0.316 µM
[24] = second compound 10 µM, first compound 1 µM
[25] = second compound 0.0316 µM, first compound 3.16 µM
[26] = second compound 0.0316 µM, first compound 10 µM
[27] = second compound 0.1 µM, first compound 3.16 µM
[28] = second compound 0.1 µM, first compound 10 µM
[29] = second compound 0.316 µM, first compound 3.16 µM
[30] = second compound 0.316 µM, first compound 10 µM
[31] = second compound 1 µM, first compound 3.16 µM
[32] = second compound 1 µM, first compound 10 µM
[33] = second compound 3.16 µM, first compound 3.16 µM
[34] = second compound 3.16 µM, first compound 10 µM
[35] = second compound 10 µM, first compound 3.16 µM
[36] = second compound 10 µM, first compound 10 µM
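Further: spheroids exposed to agents for 7 days before viability read.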
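Wherever viability, T/C is given: 100% = DMSO vehicle treated spheroids.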

CCN1CCN(Cc2ccc(Nc3ncc(F)c(-c4cc(F)c5nc(C)n(C(C)C)c5c4)n3)nc2)CC1 + CC(Nc1ncnc2nc[nH]c12)c1cc2cccc(Cl)c2c(=O)n1-c1ccccc1
> 1 µM: IC50 (second compound 0.0316 µM) | IC50 (second compound 0.1 µM) | IC50 (second compound 0.316 µM) | IC50 (second compound 1 µM) | IC50 (second compound 3.16 µM) | IC50 (second compound 10 µM)
inactive: viability, T/C (second compound 0.0316 µM, first compound 0.00316 µM) 91.4% | viability, T/C (second compound 0.0316 µM, first compound 0.01 µM) 125% | viability, T/C [1] 77.5% | viability, T/C [2] 83.9% | viability, T/C [3] 85.3% | viability, T/C [4] 101% | viability, T/C (second compound 0.1 µM, first compound 0.00316 µM) 121% | viability, T/C (second compound 0.1 µM, first compound 0.01 µM) 100% | viability, T/C [5] 100% | viability, T/C [6] 102% | viability, T/C [7] 88.1% | viability, T/C [8] 115% | viability, T/C (second compound 0.316 µM, first compound 0.00316 µM) 99.8% | viability, T/C (second compound 0.316 µM, first compound 0.01 µM) 96.2% | viability, T/C [9] 95.5% | viability, T/C [10] 66.9% | viability, T/C [11] 92% | viability, T/C [12] 112% | viability, T/C (second compound 1 µM, first compound 0.00316 µM) 104% | viability, T/C (second compound 1 µM, first compound 0.01 µM) 72.2% | viability, T/C [13] 85.8% | viability, T/C [14] 81.4% | viability, T/C [15] 93.7% | viability, T/C [16] 102% | viability, T/C (second compound 3.16 µM, first compound 0.00316 µM) 91% | viability, T/C (second compound 3.16 µM, first compound 0.01 µM) 86.5% | viability, T/C [17] 77.3% | viability, T/C [18] 95.8% | viability, T/C [19] 111% | viability, T/C [20] 112% | viability, T/C (second compound 10 µM, first compound 0.00316 µM) 120% | viability, T/C (second compound 10 µM, first compound 0.01 µM) 100% | viability, T/C [21] 114% | viability, T/C [22] 91.6% | viability, T/C [23] 91.2% | viability, T/C [24] 101%

Cn1ncc(Cl)c1-c1cc(C(=O)NC(CN)Cc2cccc(F)c2)sc1Cl (stereo unspecified) + CC(Nc1ncnc2nc[nH]c12)c1cc2cccc(Cl)c2c(=O)n1-c1ccccc1
7.07 µM: IC50 (second compound 1 µM)
inactive: viability, T/C [1] 73.9% | viability, T/C [2] 85.7% | viability, T/C [3] 71.5% | viability, T/C [4] 68.3% | viability, T/C [25] 57.2% | viability, T/C [26] 55.1% | viability, T/C [5] 80.1% | viability, T/C [6] 67.8% | viability, T/C [7] 80.7% | viability, T/C [8] 73% | viability, T/C [27] 67.6% | viability, T/C [28] 49.2% | viability, T/C [9] 95.3% | viability, T/C [10] 86.4% | viability, T/C [11] 67% | viability, T/C [12] 69% | viability, T/C [29] 63.6% | viability, T/C [30] 47.8% | viability, T/C [13] 82.1% | viability, T/C [14] 95.8% | viability, T/C [15] 71% | viability, T/C [16] 78.2% | viability, T/C [31] 62.3% | viability, T/C [32] 44.2% | viability, T/C [17] 79.9% | viability, T/C [18] 91.6% | viability, T/C [19] 78.8% | viability, T/C [20] 70.2% | viability, T/C [33] 69.8% | viability, T/C [34] 50.6% | viability, T/C [21] 104% | viability, T/C [22] 73.2% | viability, T/C [23] 89.7% | viability, T/C [24] 68.7% | viability, T/C [35] 64.1% | viability, T/C [36] 47.1%
> 10 µM: IC50 (second compound 0.0316 µM) | IC50 (second compound 0.316 µM) | IC50 (second compound 3.16 µM)
9.26 µM: IC50 (second compound 10 µM)
9.49 µM: IC50 (second compound 0.1 µM)

Cn1nccc1Nc1nccc(-c2ccn(C(CO)c3ccc(Cl)c(F)c3)c(=O)c2)n1 (stereo unspecified) + CC(Nc1ncnc2nc[nH]c12)c1cc2cccc(Cl)c2c(=O)n1-c1ccccc1
inactive: viability, T/C [1] 73.9% | viability, T/C [2] 61.6% | viability, T/C [3] 72.4% | viability, T/C [4] 76.7% | viability, T/C [25] 87.6% | viability, T/C [26] 85.4% | viability, T/C [5] 110% | viability, T/C [6] 83.8% | viability, T/C [7] 78% | viability, T/C [8] 74.7% | viability, T/C [27] 82.4% | viability, T/C [28] 89.6% | viability, T/C [9] 90.7% | viability, T/C [10] 94% | viability, T/C [11] 59.5% | viability, T/C [12] 66.1% | viability, T/C [29] 82.1% | viability, T/C [30] 83.7% | viability, T/C [13] 96% | viability, T/C [14] 87.4% | viability, T/C [15] 67.8% | viability, T/C [16] 74.2% | viability, T/C [31] 80.3% | viability, T/C [32] 79.7% | viability, T/C [17] 106% | viability, T/C [18] 70.2% | viability, T/C [19] 61.9% | viability, T/C [20] 77.7% | viability, T/C [33] 75.5% | viability, T/C [34] 63.7% | viability, T/C [21] 82.1% | viability, T/C [22] 90.2% | viability, T/C [23] 85.9% | viability, T/C [24] 70.8% | viability, T/C [35] 67.8% | viability, T/C [36] 61%
> 10 µM: IC50 (second compound 0.0316 µM) | IC50 (second compound 0.1 µM) | IC50 (second compound 0.316 µM) | IC50 (second compound 1 µM) | IC50 (second compound 3.16 µM) | IC50 (second compound 10 µM)

— PubChem BioAssay AID1963975 (Molecular Pharmacology Branch, DTP, NCI, 2024)
